Patent US20240299504A1, “COMPOSITIONS AND METHODS FOR TREATING ALZHEIMERS DISEASE” (priority 2023, published 2024)

Tests used:
5×FAD mice [1] = assay: Novel object recognition (NOR); assay type: in vivo, mouse
Experimental: (§1) Parathyroid hormone (human) was purchased from TOCRIS Bioscience (Cat #3011/1, Abingdon, United Kingdom). WT or 5×FAD mice (both male and female) were treated with PTH1-34 intermittently [once daily injection of hPTH1-34 (50 μg/Kg) or vehicle (0.9% sodium chloride) (as a control) by subcutaneous injection, starting at 2-MO, 5 days per week] as described previously. Mice were then subjected to behavioral tests and sacrificed for examinations of their bone and brain phenotypes at the indicated ages.
Mice (female and male) at the age of ˜5-MO were subjected to behavioral studies. The experimental procedures are described as previously. […] The total arm entries and the number of tri-ads were recorded to quantify the percentage of spontaneous alternation. For novel object recognition (NOR), which tests mouse's memory ability for a novel object, 20 min were recorded to analyze the time to explore the old object vs. the new object of each mouse. […] During test trials, one of the objects was replaced with a new object and mice were free to explore for another 20 min, and the time spent exploring the new object and the old object was recorded. The discrimination index is quantified as the novelty object preference, which is the time spent exploring the new object minus the time exploring the old object over the total exploration time.

GFAP+ astrocytes = assay: Co-immunostaining ThioS/GFAP, reactive astrocytes; assay type: in vivo, mouse
Experimental: as §1
DAPI was used for nucleus staining.

Aβ plaques = assay: Aβ deposition assay (Thioflavin S staining); assay type: in vivo, mouse; details: vs Veh
Experimental: as §1
Thioflavin S (Thio-S) staining was used for Aβ deposition assay as previously described with minimal modification. Beginning with the lateral-most section in the ROI (region of interest), every sixth tissue section of six consecutive sections was used. […] The brain slices were then washed with a series of graded EtOH in the dark as follows: 95% EtOH for 2 min, 80% EtOH for 2 min, and 70% EtOH for 2 min. Finally, the brain slices were washed with PBS 3 times in the dark and transferred to slides for sealing with an antifade fluorescence mounting medium. All the brain slices were captured on a Laser confocal microscopy. The images were adjusted to the same threshold to increase signal-to-noise ratio. Plaques >5.5 μm^2 were quantified. Four sections per mouse were quantified. The layers or sub-regions of cortex and hippocampus in each image were outlined and analyzed with the National Institutes of Health ImageJ software.

5×FAD astrocytes = assay: RT-qPCR of cytokines and chemokines in cultured astrocytes; assay type: cell-based, mouse; details: cultured 5×FAD astrocytes, 100 ng/ml, 24 h
Experimental: Total RNA was extracted from cortex, hippocampus, or cultured astrocytes using a TRizol reagent (Invitrogen, cat #15596-026, Carlsbad, CA, USA) as previously described. Purified RNA (1-5 μg) was used for cDNA synthesis with the Revert Aid First Strand cDNA Synthesis Kit (Thermo Scientific, cat #K1621, Waltham, MA, USA). The cDNA products were subjected to subsequent quantitative PCR (qPCR) using the QuantiFast SYBR Green PCR Kit (QIA-GEN, cat #204057, Hilden, Germany) with a qPCR System (StepOne Plus). Each sample was repeated at least 3 times, and the mRNA level was normalized to GAPDH using the 2^−ΔΔCt method.
Astrocyte culture was performed according to the standard protocol with some modifications as described in previous literature. In brief, the cerebral cortex and hippocampus of postnatal day 3 (P3) female pups were dissected under a stereomicroscope and placed in ice-cold calcium- and magnesium-free HBSS (Hanks Balanced Salt Solution). The tissues were digested with 2.5% trypsin-EDTA, 3 ml for each mouse, at 37° C. for 20 min with shaking slightly every 5 min. The digested tissue was blown into single-cell suspension, filtered through a […] filter mesh, pelleted at 900×g for 5 min, and resuspended in growth medium (DMEM plus 10% FBS), which was incubated at 37° C. with 5% CO2. […]

5×FAD mice [2] = assay: Micro-computed tomography (μCT) of femurs, bone phenotype; assay type: in vivo, mouse; details: femur μCT, 6-MO female 5×FAD vs WT mice; hPTH1-34 50 μg/Kg s.c. once daily, 5 days per week from 2-MO
Experimental: as §1
Femurs of WT and 5×FAD female mouse with or without PTH1-34 treatment were detached and fixed overnight in 10% formalin and stored in PBS for further characterization by microCT (μCT). The excised femurs were placed vertically in a 12-mm-diameter scanning holder and scanned using the Scanco μCT40 (Scanco Medical AG). Settings parameters are adjusted as previously described: […], 55 kVp, and 145 μA with an integration time of 200 ms. For the cortical analysis, the bone was scanned at the midshaft of the bone for a scan of 25 slices, and the threshold for cortical bone was set at 329. The 3D reconstruction was performed using all outlined slices and analyzed by μCT evaluation program (v.6.5-2; Scanco Medical). Data were obtained on bone volume (BV), total volume (TV), BV/TV, bone density, and cortical thickness for cortical bone. […]

CC[C@H](C)[C@H](NC(=O)[C@H](CCC(=O)O)NC(=O)[C@H](CO)NC(=O)[C@@H](NC(=O)[C@@H](N)CO)C(C)C)C(=O)N[C@@H](CCC(N)=O)C(=O)N[C@@H](CC(C)C)C(=O)N[C@@H](CCSC)C(=O)N[C@@H](Cc1cnc[nH]1)C(=O)N[C@@H](CC(N)=O)C(=O)N[C@@H](CC(C)C)C(=O)NCC(=O)N[C@@H](CCCCN)C(=O)N[C@@H](Cc1cnc[nH]1)C(=O)N[C@@H](CC(C)C)C(=O)N[C@@H](CC(N)=O)C(=O)N[C@@H](CO)C(=O)N[C@@H](CCSC)C(=O)N[C@@H](CCC(=O)O)C(=O)N[C@@H](CCCN=C(N)N)C(=O)N[C@H](C(=O)N[C@@H](CCC(=O)O)C(=O)N[C@@H](Cc1c[nH]c2ccccc12)C(=O)N[C@@H](CC(C)C)C(=O)N[C@@H](CCCN=C(N)N)C(=O)N[C@@H](CCCCN)C(=O)N[C@@H](CCCCN)C(=O)N[C@@H](CC(C)C)C(=O)N[C@@H](CCC(N)=O)C(=O)N[C@@H](CC(=O)O)C(=O)N[C@H](C(=O)N[C@@H](Cc1cnc[nH]1)C(=O)N[C@@H](CC(N)=O)C(=O)N[C@@H](Cc1ccccc1)C(=O)O)C(C)C)C(C)C [PTH1-34]
NOR, recognition of the novel object (discrimination index) (5×FAD mice [1]; 5×FAD female mice ~5-MO vs 5×FAD Veh, 50 μg/Kg s.c. intermittent): improved recognition of the novel object | NOR, cognitive function in novel object recognition (5×FAD mice [1]; 5×FAD male mice ~5-MO vs Veh): Little to no improvement | inhibition of glial cell activation (GFAP, IBA1), by sex (GFAP+ astrocytes; female and male 5×FAD mice, 6-MO): detectable in both female and male 5×FAD mice | GFAP+ fluorescence intensity (GFAP+ astrocytes; layers of cortex (except layer II/III) and DG region of hippocampus, ~6 MO female 5×FAD vs Veh): lower in PTH1-34 treated 5×FAD mice than that of Veh controls | effect on glial cells (GFAP, IBA1) (GFAP+ astrocytes; wild-type (WT) female mice, 6-MO): little effect | plaque-associated GFAP fluorescence (GFAP+ astrocytes; ~6 MO female 5×FAD cortex and hippocampus vs Veh): diminished | reduction in plaque density (Aβ plaques; female 5×FAD cortex): ~46% | reduction in plaque size (Aβ plaques; female 5×FAD cortex): ~34% | reduction in plaque density (Aβ plaques; female 5×FAD hippocampus): ~59% | reduction in plaque size (Aβ plaques; female 5×FAD hippocampus): ~56% | reduction in plaque density (Aβ plaques; male 5×FAD cortex): ~32% | reduction in plaque size (Aβ plaques; male 5×FAD cortex): ~28% | reduction in plaque density (Aβ plaques; male 5×FAD hippocampus): ~50% | reduction in plaque size (Aβ plaques; male 5×FAD hippocampus): ~23% | expression of cytokines or chemokines (TNF-α, TGF-β1, CCL5, GM-CSF, RANK) (5×FAD astrocytes): Nearly all these factors (except GM CSF) were reduced | trabecular bone mass (Tb. BV/TV) (5×FAD mice [2]): more trabecular bone mass was induced in 5×FAD mice than that in WT mice
